{"source": "patent US20230203060A1", "about": "(GENFLEET THERAPEUTICS (SHANGHAI) INC., priority 2020, published 2023)", "key": {"[1]": {"system": "A549 cells (KRAS G12S mutant)", "test": "Cell proliferation inhibition experiment, 3D spheroid, CellTiter-Glo, A549", "type": "cell-based, human", "conditions": "A549 (KRAS G12S mutant) 3D spheroid, 5 days with compound, CellTiter-Glo, read-out: A549 IC50", "how_it_was_run": "(§1)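 CellTiter-Glo luminescence after 5 days' compound treatment (3.16-fold series, 0.1% DMSO) of overnight-formed spheroids in 2% FBS medium: H358 seeded at 800 cells/well in RPMI-1640, A549 at 400 cells/well in F-12K. IC50 derived by four-parameter fit of inhibition normalized to DMSO control and blank.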"}, "[2]": {"system": "KRAS G12C mutant NCI-H358 cells", "test": "Cell proliferation inhibition experiment, 3D spheroid, CellTiter-Glo, NCI-H358", "type": "cell-based, human", "conditions": "NCI-H358 (KRAS G12C mutant) 3D spheroid, 5 days with compound, CellTiter-Glo, read-out: H358 IC50", "how_it_was_run": "as §1"}}, "note": "Like-named read-outs stand apart in the source and are kept apart here."}
{"smiles": "C=CC(=O)N1CCN2C(=O)c3c(N4CCN(CCO)C[C@@H]4C)nc(-c4c(O)cccc4F)c(Cl)c3OC[C@H]2C1", "note": "[Z257, (6aR)-8-acryloyl-4-chloro-3-(2-fluoro-6-hydroxyphenyl)-1-((S)-4-(2-hydroxyethyl)-2-methylpiperazin-1-yl)-6,6a,7 ,8,9,10-hexahydro-12H-pyrazino[2,1-c]pyrido[3,4-f][1,4]oxazepin-12-one]", "values": [{"measurement": "IC50", "setting": "[1]; Homo sapiens, A549, 120 h", "value": "> 30", "unit": "µM"}, {"measurement": "IC50", "setting": "[2]; Homo sapiens, NCI-H358, 120 h", "value": 0.0102, "unit": "µM"}]}
{"smiles": "C=CC(=O)N1CCN2C(=O)c3c(N4CC(N(C)C5COC5)CC4(C)C)nc(-c4c(O)cccc4F)c(Cl)c3OC[C@H]2C1", "note": "(single isomer, unassigned) [Z331-2]", "values": [{"measurement": "IC50", "setting": "[1]", "value": 9.32, "unit": "µM"}, {"measurement": "IC50", "setting": "[2]", "value": 0.0011, "unit": "µM"}]}
{"smiles": "C=CC(=O)N1CCN2C(=O)c3c(N4CCN(C)C[C@@H]4C)nc(-c4c(O)cccc4Cl)c(Cl)c3OC[C@H]2C1", "note": "(single isomer, unassigned) [Z455-1]", "values": [{"measurement": "IC50", "setting": "[1]", "value": 4.18, "unit": "µM"}, {"measurement": "IC50", "setting": "[2]", "value": 0.0452, "unit": "µM"}]}
{"smiles": "C=CC(=O)N1CCN2C(=O)c3c(N4C[C@H](N(C)C)CC4(C)C)nc(-c4ccccc4)c(Cl)c3OC[C@H]2C1", "note": "(single isomer, unassigned) [Z655-2]", "values": [{"measurement": "IC50", "setting": "[1]", "value": 2.75, "unit": "µM"}, {"measurement": "IC50", "setting": "[2]", "value": 0.018, "unit": "µM"}]}
{"smiles": "C=CC(=O)N1CCN2C(=O)c3c(N4CCN(C)C(C)(C)C4)nc(-c4c(O)cccc4F)c(Cl)c3OC[C@H]2C1", "note": "[Z261, (6aR)-8-acryloyl-4-chloro-3-(2-fluoro-6-hydroxyphenyl)-1-(3,3,4-trimethylpiperazin-1-yl)-6,6a,7,8,9,10-hexahydro-12H-pyrazino[2,1-c]pyrido[3,4-f][1,4]oxazepin-12-one]", "values": [{"measurement": "IC50", "setting": "[1]; Homo sapiens, A549, 120 h", "value": 8.89, "unit": "µM"}, {"measurement": "IC50", "setting": "[2]; Homo sapiens, NCI-H358, 120 h", "value": 0.0066, "unit": "µM"}]}
{"smiles": "C=CC(=O)N1CCN2C(=O)c3c(N4CCN(C)C[C@@H]4C)nc(-c4c(O)cccc4Cl)c(Cl)c3OC[C@H]2C1", "note": "(single isomer, unassigned) [Z455-2]", "values": [{"measurement": "IC50", "setting": "[1]", "value": "> 10", "unit": "µM"}, {"measurement": "IC50", "setting": "[2]", "value": 0.0037, "unit": "µM"}]}
{"smiles": "C=CC(=O)N1CCN2C(=O)c3c(N4C[C@H](N(C)CCF)CC4(C)C)nc(-c4ccccc4F)c(Cl)c3OC[C@H]2C1", "note": "(single isomer, unassigned) [Z660-2]", "values": [{"measurement": "IC50", "setting": "[1]", "value": 9.08, "unit": "µM"}, {"measurement": "IC50", "setting": "[2]", "value": 0.0108, "unit": "µM"}]}
{"smiles": "C=CC(=O)N1CCN2C(=O)c3c(N4CCN(C)C(C)C4C)nc(-c4c(O)cccc4F)c(Cl)c3OC[C@H]2C1", "note": "(stereo partly drawn) [Z308a, (6aR)-8-acryloyl-4-chloro-3-(2-fluoro-6-hydroxyphenyl)-1-(2,3,4-trimethylpiperazin-1-yl)-6,6a,7,8,9,10-hexahydro-12H-pyrazino[2,1-c]pyrido[3,4-f][1,4]oxazepin-12-one]", "values": [{"measurement": "IC50", "setting": "[1]", "value": 7.1, "unit": "µM"}, {"measurement": "IC50", "setting": "[2]", "value": 0.0041, "unit": "µM"}]}
{"smiles": "C=CC(=O)N1CCN2C(=O)c3c(N4C[C@H](O)CC4(C)C)nc(-c4c(O)cccc4F)c(Cl)c3OC[C@H]2C1", "note": "(single isomer, unassigned) [Z82]", "values": [{"measurement": "IC50", "setting": "[1]; Homo sapiens, A549, 120 h", "value": "> 1", "unit": "µM"}, {"measurement": "IC50", "setting": "[2]; Homo sapiens, NCI-H358, 120 h", "value": 0.011, "unit": "µM"}]}
{"smiles": "C=CC(=O)N1CCN2C(=O)c3c(N4CC(O)CC4(C)C)nc(-c4c(O)cccc4F)c(F)c3OC[C@H]2C1", "note": "(stereo partly drawn) [Z256, (6aR)-8-acryloyl-4-fluoro-3-(2-fluoro-6-hydroxyphenyl)-1-(4-hydroxy-2,2-dimethylpyrrolidin-1-yl)-6,6a,7,8,9,10-hexahydro-12H-pyrazino[2,1-c]pyrido[3,4-f][1,4]oxazepin-12-one]", "values": [{"measurement": "IC50", "setting": "[1]; Homo sapiens, A549, 120 h", "value": 13.9, "unit": "µM"}, {"measurement": "IC50", "setting": "[2]; Homo sapiens, NCI-H358, 120 h", "value": 0.005, "unit": "µM"}]}
{"smiles": "C=CC(=O)N1CCN2C(=O)c3c(C4NCCN5C(=O)CCC45C)nc(-c4c(O)cccc4F)c(Cl)c3OC[C@H]2C1", "note": "(stereo partly drawn) [Z337, (6aR)-8-acryloyl-4-chloro-3-(2-fluoro-6-hydroxyphenyl)-1-(8a-methylhexahydropyrrolo[1,2-a]pyrazin-6 (2H)-one-1-yl)-6,6a,7,8,9,10-hexahydro-12H-pyrazino[2,1-c]pyrido[3,4-f][1,4]oxazepin-12-one]", "values": [{"measurement": "IC50", "setting": "[1]", "value": "> 30", "unit": "µM"}, {"measurement": "IC50", "setting": "[2]", "value": 0.015, "unit": "µM"}]}
